US20030232986A1, “Inhibitors of caspases” (Vertex Pharmaceuticals Incorporated, priority 1998, published 2003)
Like-named read-outs stand apart in the source and are kept apart here. Where a SMILES comes first, the peptide text is derived from it. [ ]: non-standard residue; d: D form. The star is where a group is joined. 4Abz = Nc1ccc(C(=O)O)cc1; Bz = O=C(c1ccccc1)*

Columns and labels:
Caspase-1 = target: T1, Caspase-1 (Homo sapiens, UniProt P29466); test: Caspase-1 enzyme inhibition (Ki); format: biochemical
T1 sequence (P29466 120-297 limits assumed): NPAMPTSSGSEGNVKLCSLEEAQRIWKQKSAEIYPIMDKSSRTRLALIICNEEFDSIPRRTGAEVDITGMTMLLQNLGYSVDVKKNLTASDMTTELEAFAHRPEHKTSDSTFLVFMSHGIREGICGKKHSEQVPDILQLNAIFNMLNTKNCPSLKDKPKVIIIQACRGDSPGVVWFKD
T1 sequence (P29466 317-404 limits assumed): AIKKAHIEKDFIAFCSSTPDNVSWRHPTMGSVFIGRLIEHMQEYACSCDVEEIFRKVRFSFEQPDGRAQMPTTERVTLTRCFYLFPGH
Outline: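 Ki obtained by fitting rate versus inhibitor concentration to the Morrison tight-binding equation for competitive inhibitors, with pNA release read at 405 nm at 37 °C. Substrate Suc-YVAD-pNA (80 μM final) added after 15 min enzyme–inhibitor preincubation in Tris pH 7.5 buffer with DTT and CHAPS.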

[1] = test system: Human Peripheral Blood Mononuclear Cells (PBMC), mature IL-1β; test: PBMC cell assay: IL-1β assay with human peripheral blood mononuclear cells; format: cell-based; conditions: LPS-stimulated human PBMC, mature IL-1β in supernatant by ELISA
From the text: IL-1β Assay with a Mixed Population of Human Peripheral Blood Mononuclear Cells (PBMC) or Enriched Adherent Mononuclear Cells
Processing of pre-IL-1β by ICE can be measured in cell culture using a variety of cell sources. Human PBMC obtained from healthy donors provides a mixed population of lymphocyte subtypes and mononuclear cells that produce a spectrum of interleukins and cytokines in response to many classes of physiological stimulators. Adherent mononuclear cells from PBMC provides an enriched source of normal monocytes for selective studies of cytokine production by activated cells.
An initial dilution series of test compound in DMSO or ethanol is prepared, with a subsequent dilution into RPMI-10% FBS media (containing 2 mM L-glutamine, 10 mM HEPES, 50 U and 50 ug/ml pen/strep) respectively to yield drugs at 4× the final test concentration containing 0.4% DMSO or 0.4% ethanol. The final concentration of DMSO is 0.1% for all drug dilutions. A concentration titration which brackets the apparent Ki for a test compound determined in an ICE inhibition assay is generally used for the primary compound screen.
Generally 5-6 compound dilutions are tested and the cellular component of the assay is performed in duplicate, with duplicate ELISA determinations on each cell culture supernatant.
Buffy coat cells isolated from one pint human blood (yielding 40-45 ml final volume plasma plus cells) are diluted with media to 80 ml and LeukoPREP separation tubes (Becton Dickinson) are each overlaid with 10 ml of cell suspension. After 15 min centrifugation at 1500-1800×g, the plasma/media layer is aspirated and then the mononuclear cell layer is collected with a Pasteur pipette and transferred to a 15 ml conical centrifuge tube (Corning). Media is added to bring the volume to 15 ml, gently mix the cells by inversion and centrifuge at 300×g for 15 min. The PBMC pellet is resuspended in a small volume of media, the cells are counted and adjusted to 6×10^6 cells/ml.
For the cellular assay, 1.0 ml of the cell suspension is added to each well of a 24-well flat bottom tissue culture plate (Corning), 0.5 ml test compound dilution and 0.5 ml LPS solution (Sigma #L-3012; 20 ng/ml solution prepared in complete RPMI media; final LPS concentration 5 ng/ml). The 0.5 ml additions of test compound and LPS are usually sufficient to mix the contents of the wells. Three control mixtures are run per experiment, with either LPS alone, solvent vehicle control, and/or additional media to adjust the final culture volume to 2.0 ml. The cell cultures are incubated for 16-18 hr at 37° C. in the presence of 5% CO2.
At the end of the incubation period, cells are harvested and transferred to 15 ml conical centrifuge tubes. After centrifugation for 10 min at 200×g, supernatants are harvested and transferred to 1.5 ml Eppendorf tubes. It may be noted that the cell pellet may be utilized for a biochemical evaluation of pre-IL-1β and/or mature IL-1β content in cytosol extracts by Western blotting or ELISA with pre-IL-1β specific antisera.
PBMC are isolated and prepared as described above. Media (1.0 ml) is first added to wells followed by 0.5 ml of the PBMC suspension. After a one hour incubation, plates are gently shaken and nonadherent cells aspirated from each well. Wells are then gently washed three times with 1.0 ml of media and final resuspended in 1.0 ml media. The enrichment for adherent cells generally yields 2.5-3.0×10^5 cells per well. The addition of test compounds, LPS, cell incubation conditions and processing of supernatants proceeds as described above.
Quantikine kits (R&D Systems) may be used for the measurement of mature IL-1β. Assays are performed according to the manufacturer's directions. Mature IL-1β levels of about 1-3 ng/ml in both PBMC and adherent mononuclear cell positive controls are observed. […]

[2] = test system: Human whole blood, IL-1β production; test: Whole blood assay for IL-1β production; format: cell-based; conditions: LPS-stimulated whole blood, IL-1β by ELISA
Method: The whole blood assay is a simple method for measuring the production of IL-1β (or other cytokines) and the activity of potential inhibitors. The complexity of this assay system, with its full complement of lymphoid and inflammatory cell types, spectrum of plasma proteins and red blood cells is an ideal in vitro representation of human in vivo physiologic conditions.
Set incubator or water bath at 30° C. Aliquot 0.25 ml of blood into 1.5 ml eppendorf tubes. Note: be sure to invert the whole blood sample tubes after every two aliquots. Differences in replicates may result if the cells sediment and are not uniformly suspended. Use of a positive displacement pipette will also minimize differences between replicate aliquots.
Prepare drug dilutions in sterile pyrogen-free saline by serial dilution. A dilution series which brackets the apparent Ki for a test compound determined in an ICE inhibition assay is generally used for the primary compound screen. For extremely hydrophobic compounds, prepare compound dilutions in fresh plasma obtained from the same blood donor or in PBS-containing 5% DMSO to enhance solubility.
Add 25 μl test compound dilution or vehicle control and gently mix the sample. Then add 5.0 μl LPS solution (250 ng/ml stocked prepared fresh: 5.0 ng/ml final concentration LPS), and mix again. Incubate the tubes at […] in a water bath for 16-18 hr with occasional mixing. Alternatively, the tubes can be placed in a rotator set at 4 rpm for the same incubation period. This assay should be set up in duplicate or triplicate with the following controls: negative control—no LPS; positive control—no test inhibitor; vehicle control—the highest concentration of DMSO or compound solvent used in the experiment. Additional saline is added to all control tubes to normalize volumes for both control and experimental whole blood test samples.
After the incubation period, whole blood samples are centrifuged for 10 minutes at ^˜2000 rpm in the microfuge, plasma is transferred to a fresh microfuge tube and centrifuged at 1000×g to pellet residual platelets if necessary. Plasma samples may be stored frozen at −70° C. prior to assay for cytokine levels by ELISA.
R & D Systems (614 McKinley Place N.E. Minneapolis, Minn. 55413) Quantikine kits may be used for measurement of IL-1β and TNF-α. The assays are performed according to the manufacture's directions. IL-1β levels of ^˜1-5 ng/ml in positive controls among a range of individuals may be observed. A 1:200 dilution of plasma for all samples is usually sufficient for experiments for ELISA results to fall on the linear range of the ELISA standard curves. It may be necessary to optimize standard dilutions if you observe differences in the whole blood assay. Nerad, J. L. et al., J. Leukocyte Biol., 52, pp. 687-692 (1992).

[3] = substrate Suc-YVAD-pNA 80 μM, 37° C., pH 7.5

| Compound | Ki (Caspase-1) | Ki (Caspase-1; [3]) | IC50 [1] | IC50 [2] |
| --- | --- | --- | --- | --- |
| CC(C)[C@H](NC(=O)c1ccccc1C(=O)c1ccc(F)cc1)C(=O)N1CCC[C@H]1C(=O)N[C@H](C=O)CC(=O)O [Example 5l] | 10 to 1000 nM | 10 to 1000 nM | < 500 nM | > 7500 nM |
| COc1cc(C(=O)N[C@H](C(=O)N2CCC[C@H]2C(=O)N[C@H](C=O)CC(=O)O)C(C)C)cc(OC)c1O [Example 5n] | < 10 nM | < 10 nM | 500 to 1000 nM | 2500 to 7500 nM |
| CC(C)[C@H](NC(=O)c1ccc2c(c1)OCO2)C(=O)N1CCC[C@H]1C(=O)N[C@H](C=O)CC(=O)O [Example 5r] | 10 to 1000 nM | 10 to 1000 nM | > 2000 nM | > 7500 nM |
| CC(C)[C@H](NC(=O)c1cnnc2ccccc12)C(=O)N1CCC[C@H]1C(=O)N[C@H](C=O)CC(=O)O [Example 5s] | 10 to 1000 nM | 10 to 1000 nM | 500 to 1000 nM | > 7500 nM |
| CC(C)[C@H](NC(=O)c1ccccc1C(=O)c1ccccc1)C(=O)N1CCC[C@H]1C(=O)N[C@H](C=O)CC(=O)O [Example 5u] | 10 to 1000 nM | 10 to 1000 nM | 1000 to 2000 nM | < 2500 nM |
| CC(C)[C@H](NC(=O)c1cnc2ccccc2n1)C(=O)N1CCC[C@H]1C(=O)N[C@H](C=O)CC(=O)O [Example 5w] | 10 to 1000 nM | 10 to 1000 nM | 500 to 1000 nM | < 2500 nM |
| CC(C)[C@H](NC(=O)c1ccccc1C(=O)N[C@@H](C)c1ccccc1)C(=O)N1CCC[C@H]1C(=O)N[C@H](C=O)CC(=O)O [Example 5x] | < 10 nM | < 10 nM | 500 to 1000 nM | < 2500 nM |
| CCCCCCOc1ccc(C(=O)N[C@H](C(=O)N2CCC[C@H]2C(=O)N[C@H](C=O)CC(=O)O)C(C)C)cc1 [Example 5y] | < 10 nM | < 10 nM | 500 to 1000 nM | 2500 to 7500 nM |
| CCCCCCc1ccc(C(=O)N[C@H](C(=O)N2CCC[C@H]2C(=O)N[C@H](C=O)CC(=O)O)C(C)C)cc1 [Example 5z] | < 10 nM | < 10 nM | 500 to 1000 nM | > 7500 nM |
| C[C@H](NC(=O)c1cccc2ccccc12)C(=O)N1CCC[C@H]1C(=O)N[C@H](C=O)CC(=O)O [Example 7a] | – | < 10 nM | > 2000 nM | 2500 to 7500 nM |
| C[C@H](NC(=O)c1ccccc1)C(=O)N1CCC[C@H]1C(=O)N[C@H](C=O)CC(=O)O [Example 7b] (Bz-Ala-Pro-Asp-aldehyde) | – | 10 to 1000 nM | 500 to 1000 nM | < 2500 nM |
| CC(=O)Nc1ccc(C(=O)N[C@@H](C)C(=O)N2CCC[C@H]2C(=O)N[C@H](C=O)CC(=O)O)cc1 [Example 7e] (Ac-[4Abz]APD-aldehyde) | – | 10 to 1000 nM | > 2000 nM | > 7500 nM |
| C[C@H](NC(=O)c1ccc(N(C)C)c2ccccc12)C(=O)N1CCC[C@H]1C(=O)N[C@H](C=O)CC(=O)O [Example 7g] | – | < 10 nM | < 500 nM | 2500 to 7500 nM |
| C[C@H](NC(=O)c1ccc(Cl)c(N)c1)C(=O)N1CCC[C@H]1C(=O)N[C@H](C=O)CC(=O)O [Example 7h] | – | 10 to 1000 nM | 500 to 1000 nM | < 2500 nM |
| COc1cc(C(=O)N[C@@H](C)C(=O)N2CCC[C@H]2C(=O)N[C@H](C=O)CC(=O)O)cc(OC)c1OC [Example 7k] | – | 10 to 1000 nM | 500 to 1000 nM | < 2500 nM |
| COc1cc(C(=O)N[C@@H](C)C(=O)N2CCC[C@H]2C(=O)N[C@H](C=O)CC(=O)O)ccc1N [Example 7l] | – | 10 to 1000 nM | 500 to 1000 nM | < 2500 nM |
| COc1ccc(C(=O)N[C@@H](C)C(=O)N2CCC[C@H]2C(=O)N[C@H](C=O)CC(=O)O)cc1F [Example 7m] | – | 10 to 1000 nM | 500 to 1000 nM | 2500 to 7500 nM |
| C[C@H](NC(=O)c1cccc(N(C)C)c1)C(=O)N1CCC[C@H]1C(=O)N[C@H](C=O)CC(=O)O [Example 7n] | – | 10 to 1000 nM | 500 to 1000 nM | < 2500 nM |
| COc1cc(C(=O)N[C@@H](C)C(=O)N2CCC[C@H]2C(=O)N[C@H](C=O)CC(=O)O)cc(Cl)c1O [Example 7o] | – | < 10 nM | < 500 nM | < 2500 nM |
| COc1ccc(C(=O)N[C@@H](C)C(=O)N2CCC[C@H]2C(=O)N[C@H](C=O)CC(=O)O)cc1C [Example 7p] | – | < 10 nM | > 2000 nM | 2500 to 7500 nM |
